Source: US10961248B2, “Pesticidally active heterocyclic derivatives with sulfur containing substituents” (SYNGENTA PARTICIPATIONS AG, priority 2016, dated 2021)

How the values were obtained:
Assay type in all cases: in vivo
[1] = tested on: Euschistus heros (Neotropical Brown Stink Bug); test: Example B6: activity against Euschistus heros, sprayed soybean leaf; conditions: 120 h, application rate 200 ppm, N-2 nymphs, 5 days after infestation, read-out: effect in at least one of the two categories (mortality or growth inhibition)
Protocol: Soybean leaf on agar in 24-well microtiter plates were sprayed with aqueous test solutions prepared from 10'000 ppm DMSO stock solutions. After drying the leaf were infested with N-2 nymphs. The samples were assessed for mortality and growth inhibition in comparison to untreated samples 5 days after infestation.

[2] = tested on: Myzus persicae (Green Peach Aphid); test: Example B2: activity against Myzus persicae, sprayed sunflower leaf discs; conditions: foliar, 144 h, application rate 200 ppm, aphid population of mixed ages, 6 days after infestation
Protocol: Sunflower leaf discs were placed on agar in a 24-well microtiter plate and sprayed with aqueous test solutions prepared from 10'000 ppm DMSO stock solutions. After drying, the leaf discs were infested with an aphid population of mixed ages. The samples were assessed for mortality 6 days after infestation.

[3] = tested on: Diabrotica Balteata (Corn Root Worm); test: Example B7: activity against Diabrotica balteata, sprayed maize sprouts; conditions: 96 h, application rate 200 ppm, L2 larvae, 4 days after infestation, read-out: effect in at least one of the two categories (mortality or growth inhibition)
Protocol: Maize sprouts placed onto an agar layer in 24-well microtiter plates were treated with aqueous test solutions prepared from 10'000 ppm DMSO stock solutions by spraying. After drying, the plates were infested with L2 larvae (6 to 10 per well). The samples were assessed for mortality and growth inhibition in comparison to untreated samples 4 days after infestation.

[4] = tested on: Myzus persicae (Green Peach Aphid); test: Example B3: activity against Myzus persicae, roots of pea seedlings in test solution; conditions: 144 h, test rate 24 ppm, roots of infested pea seedlings in test solution, 6 days
Protocol: Roots of pea seedlings infested with an aphid population of mixed ages were placed directly in the aqueous test solutions prepared from 10'000 DMSO stock solutions. The samples were assessed for mortality 6 days after placing seedlings in test solutions.

[5] = tested on: Frankliniella occidentalis (Western Flower Thrips); test: Example B4: activity against Frankliniella occidentalis, sprayed sunflower leaf discs; conditions: foliar, 168 h, application rate 200 ppm, population of mixed ages, 7 days after infestation
Protocol: Sunflower leaf discs were placed on agar in 24-well microtiter plates and sprayed with aqueous test solutions prepared from 10'000 DMSO stock solutions. After drying the leaf discs were infested with a Frankliniella population of mixed ages. The samples were assessed for mortality 7 days after infestation.

[6] = tested on: Bemisia tabaci (Cotton White Fly); test: Example B5: activity against Bemisia tabaci, sprayed cotton leaf discs; conditions: foliar, 144 h, application rate 200 ppm, adult white flies, 6 days after incubation
Protocol: Cotton leaf discs were placed on agar in 24-well microtiter plates and sprayed with aqueous test solutions prepared from 10'000 ppm DMSO stock solutions. After drying the leaf discs were infested with adult white flies. The samples were checked for mortality 6 days after incubation.

[7] = tested on: Plutella xylostella (Diamond Back Moth); test: Example B1: activity against Plutella xylostella, artificial diet in 24-well plates; conditions: 120 h, application rate 200 ppm, L2 larvae on artificial diet, 5 days after infestation, read-out: effect in at least one of the two categories (mortality or growth inhibition)
Protocol: 24-well microtiter plates with artificial diet were treated with aqueous test solutions prepared from 10'000 ppm DMSO stock solutions by pipetting. After drying, the plates were infested with L2 larvae (10 to 15 per well). The samples were assessed for mortality and growth inhibition in comparison to untreated samples 5 days after infestation.

[8] = tested on: Spodoptera littoralis (Egyptian Cotton Leaf Worm); test: Example B7: activity against Spodoptera littoralis, sprayed cotton leaf discs; conditions: foliar, 72 h, application rate 200 ppm, L1 larvae, 3 days after infestation
Protocol: Cotton leaf discs were placed onto agar in 24-well microtiter plates and sprayed with aqueous test solutions prepared from 10'000 ppm DMSO stock solutions. After drying the leaf discs were infested with five L1 larvae. The samples were assessed for mortality, anti-feeding effect, and growth inhibition in comparison to untreated samples 3 days after infestation. Control of Spodoptera littoralis by a test sample is given when at least one of the categories mortality, anti-feedant effect, and growth inhibition is higher than the untreated sample.

CCS(CC)=Nc1cnc(-c2nc3cc(C(F)(F)F)ncc3n2C)c(S(=O)(=O)CC)c1 [P18]
≥ 80%: percent effect (mortality or growth inhibition) at 200 ppm [1] | mortality at 200 ppm [2] | percent effect (mortality or growth inhibition) at 200 ppm [3]

CCS(=O)(=O)c1cc(N=S(C)(C)=O)cnc1-c1cn2cnc(C(F)(F)F)cc2n1 [P1, [5-ethylsulfonyl-6-[7-(trifluoromethyl)imidazo[1,2-c]pyrimidin-2-yl]-3-pyridyl]imino-dimethyl-oxo-λ^6-sulfane]
≥ 80%: mortality at 24 ppm [4] | percent effect (mortality or growth inhibition) at 200 ppm [1] | mortality at 200 ppm [2] | mortality at 200 ppm [5] | mortality at 200 ppm [6] | percent effect (mortality or growth inhibition) at 200 ppm [7] | percent control (mortality, anti-feedant effect or growth inhibition) at 200 ppm [8]

CCS(=O)(=O)c1cc(N=S(C)(=O)CC)cnc1-c1nc2cc(C(F)(F)F)ncc2n1C (stereo not shown) [P19, ethyl-[[5-ethylsulfonyl-6-[3-methyl-6-(trifluoromethyl)imidazo[4,5-c]pyridin-2-yl]-3-pyridyl]imino]-methyl-oxo-λ^6-sulfane]
≥ 80%: mortality at 24 ppm [4] | percent effect (mortality or growth inhibition) at 200 ppm [1] | mortality at 200 ppm [2] | mortality at 200 ppm [5] | percent effect (mortality or growth inhibition) at 200 ppm [3] | mortality at 200 ppm [6] | percent effect (mortality or growth inhibition) at 200 ppm [7]

CCS(=O)(=O)c1cc(N=S2(=O)CCOCC2)cnc1-c1nc2cc(C(F)(F)F)ncc2n1C [P5, 4-[[5-ethylsulfonyl-6-[3-methyl-6-(trifluoromethyl)imidazo[4,5-c]pyridin-2-yl]-3-pyridyl]imino]-1,4-oxathiane 4-oxide]
≥ 80%: mortality at 24 ppm [4] | percent effect (mortality or growth inhibition) at 200 ppm [1] | mortality at 200 ppm [2] | mortality at 200 ppm [5] | mortality at 200 ppm [6] | percent effect (mortality or growth inhibition) at 200 ppm [7] | percent control (mortality, anti-feedant effect or growth inhibition) at 200 ppm [8]

CCS(=O)(=O)c1cc(N=S2(=O)CCOCC2)cnc1-c1cn2cnc(C(F)(F)F)cc2n1 [P22, 4-[[5-ethylsulfonyl-6-[7-(trifluoromethyl)imidazo[1,2-c]pyrimidin-2-yl]-3-pyridyl]imino]-1,4-oxathiane 4-oxide]
≥ 80%: mortality at 24 ppm [4] | percent effect (mortality or growth inhibition) at 200 ppm [1] | mortality at 200 ppm [2] | mortality at 200 ppm [5] | mortality at 200 ppm [6] | percent effect (mortality or growth inhibition) at 200 ppm [7] | percent control (mortality, anti-feedant effect or growth inhibition) at 200 ppm [8]

CCS(=O)(=O)c1cc(N=S(C)(=O)C2CC2)ccc1-c1cn2cnc(C(F)(F)F)cc2n1 (stereo not shown) [P15, cyclopropyl-[3-ethylsulfonyl-4-[7-(trifluoromethyl)imidazo[1,2-c]pyrimidin-2-yl]phenyl]imino-methyl-oxo-λ^6-sulfane]
≥ 80%: percent effect (mortality or growth inhibition) at 200 ppm [1] | mortality at 200 ppm [2] | percent effect (mortality or growth inhibition) at 200 ppm [3] | percent effect (mortality or growth inhibition) at 200 ppm [7]

CCS(=O)(=O)c1cc(N=S(C)(=O)C2CC2)cnc1-c1cn2cnc(C(F)(F)F)cc2n1 (stereo not shown) [P8, cyclopropyl-[[5-ethylsulfonyl-6-[7-(trifluoromethyl)imidazo[1,2-c]pyrimidin-2-yl]-3-pyridyl]imino]-methyl-oxo-λ^6-sulfane]
≥ 80%: mortality at 24 ppm [4] | percent effect (mortality or growth inhibition) at 200 ppm [1] | mortality at 200 ppm [2] | mortality at 200 ppm [5] | percent effect (mortality or growth inhibition) at 200 ppm [3] | mortality at 200 ppm [6] | percent effect (mortality or growth inhibition) at 200 ppm [7] | percent control (mortality, anti-feedant effect or growth inhibition) at 200 ppm [8]

CCS(=O)(=O)c1cc(N=S(C)(C)=O)ccc1-c1cn2cnc(C(F)(F)F)cc2n1 [P14, [3-ethylsulfonyl-4-[7-(trifluoromethyl)imidazo[1,2-c]pyrimidin-2-yl]phenyl]imino-dimethyl-oxo-λ^6-sulfane]
≥ 80%: mortality at 24 ppm [4] | percent effect (mortality or growth inhibition) at 200 ppm [1] | mortality at 200 ppm [2] | mortality at 200 ppm [6] | percent effect (mortality or growth inhibition) at 200 ppm [7]

CCS(=O)(=O)c1cc(N=S2(=O)CCOCC2)ccc1-c1nc2cc(C(F)(F)F)ncc2n1C [P21, 4-[3-ethylsulfonyl-4-[3-methyl-6-(trifluoromethyl)imidazo[4,5-c]pyridin-2-yl]phenyl]imino-1,4-oxathiane 4-oxide]
≥ 80%: mortality at 24 ppm [4] | percent effect (mortality or growth inhibition) at 200 ppm [1] | mortality at 200 ppm [6]

CCS(=O)(=O)c1cc(N=S(C)(=O)C2CC2)cnc1-n1cc2cnc(C(F)(F)F)cc2n1 (stereo not shown) [P12, cyclopropyl-[[5-ethylsulfonyl-6-[6-(trifluoromethyl)pyrazolo[4,3-c]pyridin-2-yl]-3-pyridyl]imino]-methyl-oxo-λ^6-sulfane]
≥ 80%: percent effect (mortality or growth inhibition) at 200 ppm [1] | mortality at 200 ppm [2] | mortality at 200 ppm [5] | percent effect (mortality or growth inhibition) at 200 ppm [3] | mortality at 200 ppm [6] | percent effect (mortality or growth inhibition) at 200 ppm [7] | percent control (mortality, anti-feedant effect or growth inhibition) at 200 ppm [8]

CCS(=O)(=O)c1cc(N=S2(=O)CCC2)cnc1-c1cn2cnc(C(F)(F)F)cc2n1 [P13, 1-[[5-ethylsulfonyl-6-[7-(trifluoromethyl)imidazo[1,2-c]pyrimidin-2-yl]-3-pyridyl]imino]thietane 1-oxide]
≥ 80%: mortality at 24 ppm [4] | percent effect (mortality or growth inhibition) at 200 ppm [1] | mortality at 200 ppm [2] | mortality at 200 ppm [5] | mortality at 200 ppm [6] | percent effect (mortality or growth inhibition) at 200 ppm [7] | percent control (mortality, anti-feedant effect or growth inhibition) at 200 ppm [8]

CCSc1cc(N=S(C)(C)=O)cnc1-c1nc2cc(C(F)(F)F)ncc2n1C [P20, [5-ethylsulfanyl-6-[3-methyl-6-(trifluoromethyl)imidazo[4,5-c]pyridin-2-yl]-3-pyridyl]imino-dimethyl-oxo-λ^6-sulfane]
≥ 80%: mortality at 24 ppm [4] | percent effect (mortality or growth inhibition) at 200 ppm [1] | mortality at 200 ppm [2] | mortality at 200 ppm [5] | percent effect (mortality or growth inhibition) at 200 ppm [3]

CCS(=O)(=O)c1cc(N=S(C)C)cnc1-c1nc2cc(C(F)(F)F)ncc2n1C [P17, [5-ethylsulfonyl-6-[3-methyl-6-(trifluoromethyl)imidazo[4,5-c]pyridin-2-yl]-3-pyridyl]imino-dimethyl-λ^4-sulfane]
≥ 80%: percent effect (mortality or growth inhibition) at 200 ppm [1] | mortality at 200 ppm [2] | percent effect (mortality or growth inhibition) at 200 ppm [3]

CCS(=O)(=O)c1cc(N=S2(=O)CCCC2)cnc1-c1nc2cc(C(F)(F)F)ncc2n1C [P6, 1-[[5-ethylsulfonyl-6-[3-methyl-6-(trifluoromethyl)imidazo[4,5-c]pyridin-2-yl]-3-pyridyl]imino]thiolane 1-oxide]
≥ 80%: mortality at 24 ppm [4] | percent effect (mortality or growth inhibition) at 200 ppm [1] | mortality at 200 ppm [2] | mortality at 200 ppm [5] | mortality at 200 ppm [6] | percent effect (mortality or growth inhibition) at 200 ppm [7]
